Assay results taken from patent US20260266798A1, “SYSTEMS AND METHODS REGARDING PEAK EXPLORATION AND ARTIFICIAL TISSUE RESPONSE INCLUDING FOR CONTRACTION TYPE CLASSIFICATION OF ENGINEERED TISSUE” (VALO HEALTH, INC., priority 2023, published 2026).

System: artificial tissue
Experiment: Contraction type classification (single/double) of contractile force waveforms of artificial tissue under baseline and perturbed conditions (FIG. 27)
Type: cell-based
Conditions: functional response = contractile force; first and second (increasing) dose of isoproterenol vs reference/control conditions; shown most clearly at the second dose
From the text: The waveforms comprise functional responses (contractile force) of an artificial tissue under baseline conditions and two perturbed conditions. Examples of perturbed conditions are treatment of a tissue with a drug or compound, different cell lines, different disease states, physical perturbation of the artificial tissue, changes made to the platform or bioreactor containing the artificial tissue, and the like. The baseline waveform 2702, the first perturbed waveform 2704, and the second perturbed waveform 2706 are associated with a baseline classification vector 2708, a first perturbed classification vector 2710, and a second perturbed classification vector 2712 respectively. […]
The classification vectors (e.g., the baseline classification vector 2708) are obtained by extracting a plurality of functional response waveforms from each waveform (as described in more detail below in relation to FIG. 33) and then determining a contraction type for each functional response waveform using a prediction model (e.g., the prediction model 600 described above in relation to FIGS. 6 and 7). […] In contrast, the third classification value 2720 is a double contraction type (as indicated by the dark gray shading) because the associated functional response waveform 2724 is determined by the prediction model to contain a double contraction. […]

CC(C)NCC(O)c1ccc(O)c(O)c1 (stereo not shown) [isoproterenol]
contraction type classification vector of the perturbed waveforms compared to the baseline classification vector: induces regular double contractions of the artificial tissue
